According to patent US20060069132A1, “Azolecarboxamide herbicides” (priority 2004, published 2006):

Columns and labels:
barnyardgrass [1] = test: Test B pre-/postemergence herbicide test; format: in vivo, Echinochloa crus-galli; details: for Barnyardgrass plant response rating: postemergence, visual rating, scale 0 (no effect) to 100 (complete control)
Summary of the method: (§1)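 Test chemicals in a non-phytotoxic solvent mixture with surfactant were applied preemergence to seeded species and postemergence to plants 2-18 cm tall (1- to 4-leaf stage); rice and barnyardgrass were also tested in a flooded paddy at the 2-leaf stage. Visual rating versus controls after 13-15 days in greenhouse, scale 0 (no effect) to 100 (complete control).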

ducksalad = test: Test B flooded paddy test; format: in vivo, Heteranthera limosa; details: 1000 g ai/ha, visual rating, scale 0 to 100 (0 no effect, 100 complete control), 13 to 15 days
Summary of the method: (§2)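 Paddy species grown to the 2-leaf stage under flooding; blackgrass sprayed postemergence at 2–18 cm (1- to 4-leaf stage). Plants kept in a greenhouse for 13 to 15 days, then visually rated against controls on 0 (no effect) to 100 (complete control).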

pigweed = test: Test B pre-/postemergence herbicide test; format: in vivo, Amaranthus retroflexus; details: for Pigweed plant response rating: postemergence, visual rating, scale 0 (no effect) to 100 (complete control)
Summary of the method: (§3)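 Visual rating, 0 (no effect) to 100 (complete control), versus untreated controls after 13–15 d in greenhouse. Pre- and postemergence applications (postemergence plants 2–18 cm, 1–4 leaves); flooded paddy arm at 2-leaf stage. Compounds in non-phytotoxic solvent plus surfactant.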

barnyardgrass [2] = test: Test B flooded paddy test; format: in vivo, Echinochloa crus-galli; details: 1000 g ai/ha, visual rating, scale 0 to 100 (0 no effect, 100 complete control), 13 to 15 days
Summary of the method: as §2

rice [3] = test: Test B pre-/postemergence herbicide test; format: in vivo, Oryza sativa; details: preemergence
Summary of the method: as §3

Surinam grass = test: Test B pre-/postemergence herbicide test; format: in vivo, Urochloa decumbens; details: for Surinam Grass plant response rating: postemergence, visual rating, scale 0 (no effect) to 100 (complete control)
Summary of the method: as §3

blackgrass = test: Test B postemergence herbicide test; format: in vivo, Alopecurus myosuroides; details: postemergence, visual rating, scale 0 (no effect) to 100 (complete control)
Summary of the method: as §2

lambsquarters = test: Test B pre-/postemergence herbicide test; format: in vivo, Chenopodium album; details: for Lambsquarters plant response rating: postemergence, visual rating, scale 0 (no effect) to 100 (complete control)
Summary of the method: as §3

morningglory [4] = test: Test A pre-/postemergence herbicide test; format: in vivo, Ipomoea spp.
Summary of the method: (§4)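 Pre: seeded sandy loam, directed soil spray, compound in non-phytotoxic solvent + surfactant. Post: 1–2-leaf plants (2–10 cm), sprayed to runoff. Greenhouse ~10 d; visual injury vs untreated, 0–100 scale.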

wild oat = test: Test B postemergence herbicide test; format: in vivo, Avena fatua; details: postemergence, visual rating, scale 0 (no effect) to 100 (complete control)
Summary of the method: (§5)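 Scale 0–100: zero equals no visible effect, 100 complete control, judged by eye relative to controls. Timing: 13 to 15 days in greenhouse post-treatment. Growth stage at spraying: two leaves (paddy) or one to four leaves, 2–18 cm (postemergence).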

velvetleaf [5] = test: Test A pre-/postemergence herbicide test; format: in vivo, Abutilon theophrasti
Summary of the method: as §4

barnyardgrass [6] = test: Test A pre-/postemergence herbicide test; format: in vivo, Echinochloa crus-galli
Summary of the method: as §4

giant foxtail [7] = test: Test B pre-/postemergence herbicide test; format: in vivo, Setaria faberi; details: for Foxtail, Giant plant response rating: postemergence, visual rating, scale 0 (no effect) to 100 (complete control)
Summary of the method: as §3

velvetleaf [8] = test: Test B pre-/postemergence herbicide test; format: in vivo, Abutilon theophrasti; details: for Velvetleaf plant response rating: postemergence, visual rating, scale 0 (no effect) to 100 (complete control)
Summary of the method: as §3

redroot pigweed = test: Test A pre-/postemergence herbicide test; format: in vivo, Amaranthus retroflexus
Summary of the method: as §4

[9] = test system: small flower umbrella sedge; test: Test B flooded paddy test; format: in vivo, Cyperus difformis; details: 1000 g ai/ha, visual rating, scale 0 to 100 (0 no effect, 100 complete control), 13 to 15 days
Summary of the method: as §2

large crabgrass [10] = test: Test B pre-/postemergence herbicide test; format: in vivo, Digitaria sanguinalis; details: for Crabgrass, Large plant response rating: postemergence, visual rating, scale 0 (no effect) to 100 (complete control)
Summary of the method: as §3

giant foxtail [11] = test: Test A pre-/postemergence herbicide test; format: in vivo, Setaria faberi
Summary of the method: as §4

rice [12] = test: Test B flooded paddy test; format: in vivo, Oryza sativa; details: 1000 g ai/ha, visual rating, scale 0 to 100 (0 no effect, 100 complete control), 13 to 15 days
Summary of the method: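 Read-out: visual comparison with controls, scored 0 to 100, where 100 means complete control and 0 no effect. Formulated chemicals were applied postemergence to plants 2–18 cm tall (1- to 4-leaf), or to flooded-paddy plants at the 2-leaf stage, then held 13 to 15 days under glass.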

cocklebur = test: Test B pre-/postemergence herbicide test; format: in vivo, Xanthium strumarium; details: postemergence, visual rating, scale 0 (no effect) to 100 (complete control)
Summary of the method: as §1

morningglory [13] = test: Test B pre-/postemergence herbicide test; format: in vivo, Ipomoea coccinea; details: for Morningglory plant response rating: postemergence, visual rating, scale 0 (no effect) to 100 (complete control)
Summary of the method: as §1

corn = test: Test B pre-/postemergence herbicide test; format: in vivo, Zea mays; details: for Corn plant response rating: postemergence, visual rating, scale 0 (no effect) to 100 (complete control)
Summary of the method: as §3

wheat = test: Test B postemergence herbicide test; format: in vivo, Triticum aestivum; parameters: key to Wheat plant response rating: 0 = no effect, 100 = complete control; details: postemergence, visual rating, scale 0 (no effect) to 100 (complete control)
Summary of the method: as §5

large crabgrass [14] = test: Test A pre-/postemergence herbicide test; format: in vivo, Digitaria sanguinalis
Summary of the method: as §4

[15] = 125 g ai/ha, 0 = no effect, 100 = complete control, preemergence
[16] = 500 g ai/ha, visual rating 0-100, 0 no effect, 100 complete control, preemergence
[17] = Postemergence, 500 g ai/ha, 0 to 100 scale, 0 no effect, 100 complete control
[18] = Postemergence, 2000 g ai/ha, 0 to 100 scale, 0 no effect, 100 complete control
[19] = Preemergence, 2000 g ai/ha, visual rating, 0 to 100 scale (0 no effect, 100 complete control)
[20] = preemergence, 500 g ai/ha, visual injury, 0 to 100 scale (0 no effect, 100 complete control)

CCn1nc(C(C)(C)C)cc1C(=O)Nc1nc(OC)cc(SCF)n1 [Compound 167]
20: Plant response rating, Velvetleaf (velvetleaf [5]; [18])
5: Morningglory plant response rating (morningglory [4]; [19]) | Velvetleaf plant response rating (velvetleaf [5]; [20]) | Plant response rating, Crabgrass, Large (large crabgrass [14]; [18]) | Crabgrass, Large plant response rating (large crabgrass [14]; [19])
50: Pigweed plant response rating (redroot pigweed; [19])
0: Barnyardgrass plant response rating (0 to 100 scale) (barnyardgrass [1]; [15]) | Plant response rating, Barnyardgrass (barnyardgrass [1]; [16]) | Barnyardgrass plant response rating (barnyardgrass [1]; 125 g ai/ha) | Barnyardgrass plant response rating (barnyardgrass [1]; 500 g ai/ha) | Ducksalad plant response rating (ducksalad) | Pigweed plant response rating (0 to 100 scale) (pigweed; [15]) | Plant response rating, Pigweed (pigweed; [16]) | Pigweed plant response rating (pigweed; 125 g ai/ha) | Pigweed plant response rating (pigweed; 500 g ai/ha) | Barnyardgrass plant response rating (barnyardgrass [2]) | Rice plant response rating (0 to 100 scale) (rice [3]; 125 g ai/ha, 0 = no effect, 100 = complete control) | Plant response rating, Rice (rice [3]; 500 g ai/ha, visual rating 0-100, 0 no effect, 100 complete control) | Surinam Grass plant response rating (0 to 100 scale) (Surinam grass; [15]) | Plant response rating, Surinam Grass (Surinam grass; [16]) | Surinam Grass plant response rating (Surinam grass; 125 g ai/ha) | Surinam Grass plant response rating (Surinam grass; 500 g ai/ha) | Blackgrass plant response rating (blackgrass; 125 g ai/ha) | Blackgrass plant response rating (blackgrass; 500 g ai/ha) | Lambsquarters plant response rating (0 to 100 scale) (lambsquarters; [15]) | Plant response rating, Lambsquarters (lambsquarters; [16]) | Lambsquarters plant response rating (lambsquarters; 125 g ai/ha) | Lambsquarters plant response rating (lambsquarters; 500 g ai/ha) | Morningglory plant response rating (morningglory [4]; [17]) | Morningglory plant response rating (morningglory [4]; [20]) | Oat, Wild plant response rating (wild oat; 125 g ai/ha) | Oat, Wild plant response rating (wild oat; 500 g ai/ha) | Barnyardgrass plant response rating (barnyardgrass [6]; [17]) | Plant response rating, Barnyardgrass (barnyardgrass [6]; [18]) | Barnyardgrass plant response rating (barnyardgrass [6]; [19]) | Barnyardgrass plant response rating (barnyardgrass [6]; [20]) | Foxtail, Giant plant response rating (0 to 100 scale) (giant foxtail [7]; [15]) | Plant response rating, Foxtail, Giant (giant foxtail [7]; [16]) | Foxtail, Giant plant response rating (giant foxtail [7]; 125 g ai/ha) | Foxtail, Giant plant response rating (giant foxtail [7]; 500 g ai/ha) | Velvetleaf plant response rating (0 to 100 scale) (velvetleaf [8]; [15]) | Plant response rating, Velvetleaf (velvetleaf [8]; [16]) | Velvetleaf plant response rating (velvetleaf [8]; 125 g ai/ha) | Velvetleaf plant response rating (velvetleaf [8]; 500 g ai/ha) | Pigweed plant response rating (redroot pigweed; [17]) | Plant response rating, Pigweed (redroot pigweed; [18]) | Pigweed plant response rating (redroot pigweed; [20]) | Sedge, Umbrella plant response rating [9] | Crabgrass, Large plant response rating (0 to 100 scale) (large crabgrass [10]; [15]) | Plant response rating, Crabgrass, Large (large crabgrass [10]; [16]) | Crabgrass, Large plant response rating (large crabgrass [10]; 125 g ai/ha) | Crabgrass, Large plant response rating (large crabgrass [10]; 500 g ai/ha) | Foxtail, Giant plant response rating (giant foxtail [11]; [17]) | Plant response rating, Foxtail, Giant (giant foxtail [11]; [18]) | Foxtail, Giant plant response rating (giant foxtail [11]; [20]) | Rice plant response rating (rice [12]) | Cocklebur plant response rating (cocklebur; 125 g ai/ha) | Cocklebur plant response rating (cocklebur; 500 g ai/ha) | Morningglory plant response rating (0 to 100 scale) (morningglory [13]; [15]) | Plant response rating, Morningglory (morningglory [13]; [16]) | Morningglory plant response rating (morningglory [13]; 125 g ai/ha) | Morningglory plant response rating (morningglory [13]; 500 g ai/ha) | Plant response rating, Corn (corn; [16]) | Corn plant response rating (corn; 125 g ai/ha) | Corn plant response rating (corn; 500 g ai/ha) | Wheat plant response rating (wheat; 125 g ai/ha) | Wheat plant response rating (wheat; 500 g ai/ha) | Crabgrass, Large plant response rating (large crabgrass [14]; [17]) | Crabgrass, Large plant response rating (large crabgrass [14]; [20])
10: Plant response rating, Morningglory (morningglory [4]; [18]) | Velvetleaf plant response rating (velvetleaf [5]; [17]) | Velvetleaf plant response rating (velvetleaf [5]; [19]) | Foxtail, Giant plant response rating (giant foxtail [11]; [19])
